In patent US20110028719A1, “SCREENING METHODS FOR AMYLOID BETA MODULATORS” (priority 2006, published 2011):
Counter-ions that a name gives are not always drawn.

biological target: immobilized Aβ fibrils (Homo sapiens, UniProt P05067); assay: FAC-MS assay of free Aβ monomer (indicator) binding to immobilized Aβ fibrils in the presence of test compounds; conditions: not given
Sequence (P05067 672-713 limits assumed): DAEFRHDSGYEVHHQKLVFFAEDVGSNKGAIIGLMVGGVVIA

In the case of `CC1CCC(C(C)C)C(OC(=O)c2ccccc2N)C1` (centres unmarked), the “Aβ Shift” value was 1.

same assay, conditions: FAC-MS % shift of breakthrough time of free Aβ1-42 monomer (1 μM) on immobilized Aβ fibrils; compounds 1-10 μM in 20 mM NH4OAc, 1% DMSO; void marker M3

In order of rising “% of Shift” value:
1. O[C@H]1[C@H](O)[C@@H](O)[C@@H]2O[C@@H]2[C@@H]1O [Compound C5424, Conduritol B epoxide, reference compound]  1%
2. [H]/N=C(/N)N[C@H]1[C@H](O)[C@@H](O)[C@H](O[C@@H]2O[C@@H](C)[C@](O)(C=O)[C@H]2O[C@@H]2O[C@@H](CO)[C@H](O)[C@@H](O)[C@@H]2NC)[C@@H](N/C(N)=N\[H])[C@@H]1O [Compound 56501, Streptomycin sulfate, reference compound]  1%
3. CC(C)CC(=O)OC1C(O)C(OC(=O)CC(C)C)C(OC(=O)CC(C)C)C(OC(=O)CC(C)C)C1OC(=O)CC(C)C (centres unmarked) [Compound 37387009, 2-hydroxy-3-4,5,6-tetrakis[(3-methylbutanoyl)oxo]cyclohexyl 3-methylbutanoate]  2%
4. COC1C(O)C2OC3(CCCCC3)OC2C2OC3(CCCCC3)OC12 (racemic) [Compound 53226-6, 1,2,3,4-DL-O-cyclohexyldene-5-O-methyl-L-chiro-inositol, reference compound]  2%
5. O=C(O)[C@]1(O)C[C@@H](O)[C@@H](O)[C@H](O)C1 [Compound 138622, 1R,3R,4R,5R-Quinic acid, reference compound]  3%
6. OC1[C@@H](O)[C@H](O)C(O[C@H]2OC[C@H](O)[C@H](O)[C@H]2O)[C@H](O)[C@H]1O (stereo partly drawn) [Compound A-9826, 2-O-b-L-Arabinopyranosyl myo-inositol, reference compound]  3%
7. CC(C)(C)C(=O)OC1C(OC(=O)C(C)(C)C)C(OC(=O)C(C)(C)C)C(OC(=O)C(C)(C)C)C(OC(=O)C(C)(C)C)C1OC(=O)C(C)(C)C (centres unmarked) [Compound 37387008, 2,3,4,5,6-pentakis[(2,2-dimethylpropanoyl)oxy]cyclohexyl pivalate]  4%

same assay, conditions: FAC-MS % shift of free Aβ monomer breakthrough on immobilized Aβ fibrils in presence of the compound (screen, Table 2)

With `Oc1c(I)cc(Cl)c2cccnc12` the “Aβ Shift” value was 2.

same assay, conditions: FAC-MS screen; shift of free Aβ monomer breakthrough on immobilized Aβ fibrils in presence of compound; scale not given

In order of falling “Aβ Shift” value:
1. CC(C)C(=O)O[C@H]1[C@H](OC(=O)C(C)C)[C@@H](OC(=O)C(C)C)[C@H](OC(=O)C(C)C)[C@@H](OC(=O)C(C)C)[C@H]1OC(=O)C(C)C  5
2. CC(C)C(=O)O[C@@H]1[C@@H](OC(=O)C(C)C)[C@H](OC(=O)C(C)C)[C@H](O)[C@H](OC(=O)C(C)C)[C@H]1OC(=O)C(C)C  4
3. CC(=O)O[C@H]1[C@@H](OC(=O)CC(C)C)[C@H](OC(=O)CC(C)C)[C@@H](OC(=O)CC(C)C)[C@H](OC(=O)CC(C)C)[C@H]1OC(=O)CC(C)C  3
4. CC12CC3(C)CC(C)(C1)CC(C(=O)NC(C)(C)C)(C2)C3  2
5. O=C(O)C1C2CC3C(OC(=O)C31)C2Cl (centres unmarked)  2
6. O=C(O)C12CC3CC(C(=O)O)(C1)CC(C(=O)O)(C3)C2  2
7. Cc1ccc(C(=O)OC2CC(C)CCC2C(C)C)cc1C (centres unmarked)  2
8. CN(C)CCOC(=O)C12CC3(C)CC(C)(CC(C)(C3)C1)C2  2
9. O=C(O[C@@H]1[C@@H](OC(=O)c2ccccc2)[C@H](OC(=O)c2ccccc2)[C@H](O)[C@H](OC(=O)c2ccccc2)[C@H]1OC(=O)c1ccccc1)c1ccccc1  2
10. CC1CCCC(NC(=O)Cc2cn(C)c3ccccc23)C1C (centres unmarked)  2
11. CC1CCCC(N/C=C2\C(=O)Nc3ccccc32)C1C (centres unmarked)  2
12. CC1CCCC(NC(=O)Nc2cccs2)C1C (centres unmarked)  2
13. CC1CCCC(NC(=O)c2n[nH]c(=O)c3ccccc23)C1C (centres unmarked)  2
14. CC1CCC(C(C)C)C(OC(=O)NC(=O)C(F)(F)F)C1 (centres unmarked)  2
15. CC1CCC(C(C)C)C(OCCC[N+](C)(C)C)C1 (centres unmarked)  2
16. CC(C)CC(=O)O[C@@H]1[C@@H](OC(=O)CC(C)C)[C@H](OC(=O)CC(C)C)[C@H](O)[C@H](OC(=O)CC(C)C)[C@H]1OC(=O)CC(C)C  2
17. CCN(CC)CC12CC3CC(C)(CC(C)(C3)C1)C2  2
18. CC12CC3CC(C)(C1)CC(CN)(C3)C2  2
19. CC1CCC(C(C)C)C(OC(=O)CN2CCOCC2)C1 (centres unmarked)  1
20. CC(=O)C1C2CC3C(C2Cl)C31 (centres unmarked)  1
21. CCCC1CCC(c2ccc(C(C)=O)cc2)CC1C (centres unmarked)  1
22. CC12CC3(C)CC(C)(C1)CC(C(=O)NCC(=O)O)(C2)C3  1
23. CC(C)C1CCC(C)C(OC(=O)C2C3CCCCC32)C1 (centres unmarked)  1
24. CC(=O)NC12CC3(C)CC(C)(CC(O)(C3)C1)C2  1
25. CC12CC3(C)CC(C)(C1)CC(NC(=O)NC(C)(C)C)(C2)C3  1
26. CC12CC3CC(C)(C1)CC(C(N)=O)(C3)C2  1
27. CC1CCC(COC(=O)CN2CCOCC2)C(C)C1 (centres unmarked)  1
28. Cc1cc(C(=O)NC2CCCC(C)C2C)c2ccccc2n1 (centres unmarked)  1
29. O=C(O)C1CC(C(=O)O)C(C(=O)O)CC1C(=O)O (centres unmarked)  1
30. CC1CCCC(NS(=O)(=O)c2cccs2)C1C (centres unmarked)  1
31. CC(C)=CCCC12CCC(CO)(CO1)C(C)C2 (centres unmarked)  1
32. CC12CC3CC(CO)(C1)CC(c1ccccc1)(C3)C2 (centres unmarked)  1
33. CC12CC3(C)CC(C)(C1)CC(C(=O)NC(C)(C)CO)(C2)C3  1
34. CC1CCC(C(C)C)C(OC(=O)NN)C1 (centres unmarked)  1
35. COC(=O)CNC(=O)C12CC3(C)CC(C)(CC(C)(C3)C1)C2  1
36. CC12CC3CC(C)(C1)CC(C(=O)NO)(C3)C2  1
37. CC12CC3CC(C)(C1)CC(C(=O)CCC(=O)O)(C3)C2  1
38. C=CC1CCC(O)C(N(C)C(=S)Nc2ccccc2)C1 (centres unmarked)  1
39. CC1CCC(C(C)C)C(OC(=O)CSC#N)C1 (centres unmarked)  1
40. CCC12CC3CC(O)(C1)CC(C(=O)O)(C3)C2 (centres unmarked)  1
41. CC1CCC(COC(=O)CN2CCCCC2)C(C)C1 (centres unmarked)  1
42. CCC12CC3CC(O)(CC(O)(C3)C1)C2  1
43. COCCNC(=O)NC12CC3(C)CC(C)(CC(C)(C3)C1)C2  1
44. CC1CCN(CC(=O)OC2CC(C)CCC2C(C)C)CC1 (centres unmarked)  1
45. CC12CC3CC(O)(C1)CC(O)(C3)C2  1
46. CC1CCC(C(C)C)C(OCC(O)CN2CCCCC2)C1 (centres unmarked)  1
47. C=CCNC(=O)C12CC3(C)CC(C)(CC(C)(C3)C1)C2  1
48. CC(=O)NC1CC(Cl)CCC1C (centres unmarked)  1
49. CCCNC(=O)C12CC3(C)CC(C)(CC(C)(C3)C1)C2  1
50. CC12CC3CC(C)(C1)CC(C(=O)N1CCOCC1)(C3)C2  1
51. CC12CC3CC(C)(C1)CC(C(=O)NNC(N)=O)(C3)C2  1
52. CC1CCC(C(C)C)C(OCC(O)CN2CCOCC2)C1 (centres unmarked)  1
53. CCC(=O)OC1CCC(C)CC1C(C)(C)C(C)C (centres unmarked)  1
54. CC1CCCC(NC(=O)Cn2cc3c(n2)CCCC3)C1C (centres unmarked)  1
55. CC12CC3(C)CC(CC(=O)O)(C1)CC(CC(=O)O)(C2)C3  1
56. CC12CC3(C)CC(C)(C1)CC(N)(C2)C3  1
57. CC1C(C(=O)Nc2ccccc2)CCCC1(C)C(=O)O (centres unmarked)  1
58. CC1CCC(C(C)C)C(OC(=O)C(O)O)C1 (centres unmarked)  1
59. COC1CCC(C(C)=O)C(O)C1 (centres unmarked)  1
60. CC(=O)NC12CC3(C)CC(C)(C1)CC(NC(C)=O)(C3)C2  1
61. CC1CCCC(NC(=O)c2cc3c(s2)CSC3)C1C (centres unmarked)  1
62. CC12CC3(C)CC(C(=O)O)(C1)CC(C(=O)O)(C2)C3  1
63. CC1CCC(C(C)C)C(OC(=O)CCc2ccccc2)C1 (centres unmarked)  1
64. CN(C)C(=S)NC(=O)C12CC3CC(C)(CC(C)(C3)C1)C2  1
65. CC1CC(C)C(C(=O)c2ccccc2)C(O)C1 (centres unmarked)  1
66. COC(=O)C12CC3CC(C)(CC(C)(C3)C1)C2  1
67. CCC1CC2(C(=O)NCc3ccco3)CC3(C)CC3(C1)C2 (centres unmarked)  1
68. Cl.NC1C2CC3C1C3C2Cl (centres unmarked)  1
69. CC12CC3CC(C)(C1)CC(C(=O)Nc1nnn[nH]1)(C3)C2  1
70. C/C(=N\O)C(=O)OC1CC(C)CCC1C(C)C (centres unmarked)  1
71. CC1CC(OC(=O)CN2CCCCC2)CC(C)(C)C1 (centres unmarked)  1
72. CC1CCC(C(C)(C)C)C(O)C1 (centres unmarked)  1
73. CC12CC3(C)CC(C)(C1)CC(NC(=O)N1CCCC1)(C2)C3  1
74. CC1CCC(C(C)CS)CC1S (centres unmarked)  1
75. CC1C2CC3(C)CC1(C)CC(C1(C)CC(=O)O1)(C2)C3 (centres unmarked)  1
76. CC12CC3(C)CC(CC(N)=O)(C1)CC(C(N)=O)(C2)C3  0
77. OCC1CC(Cl)CC(Cl)C1O (centres unmarked)  0
78. O=C(O)C1C2C(=O)OC3C(Cl)C1C1(CC1)C32 (centres unmarked)  0
79. CC1CC(NC(=O)c2cccc3ccccc23)CC(C)(C)C1 (centres unmarked)  0
80. CC1CC(C)(C(=O)O)CCC1(C)C (centres unmarked)  0
81. CCCCCCCCCC(=O)NC1CCCC(C)C1C (centres unmarked)  0
82. CC1CC(C)CC(OC(=O)c2ccco2)C1 (centres unmarked)  0
83. CC(N)C12CC3CC(C)(CC(C)(C3)C1)C2 (centres unmarked)  0
84. CC1CCCC(NC(=O)NC2CCCCC2)C1C (centres unmarked)  0
85. COc1cccc(C(=O)OC2CC(C)CC(C)C2)c1 (centres unmarked)  0
86. CC(O)C12C3C4C5C1C2C(Br)(C43)C51OCCO1 (centres unmarked)  0
87. CC1(C)CC2(C)CC3=C([C@H](CO)C(C)(C)C3)C(CO)(C1)C2 (some centres unmarked)  0
88. CC1CCC(O[C@H]2C=CC(=O)O2)C(C(C)C)C1 (some centres unmarked)  0
89. CC1CCCC(NC(=O)CCC2CCCCC2)C1C (centres unmarked)  0
90. Cc1cccc(NC(=O)C23CCC(C)(C(O)C2)C3(C)C)n1 (centres unmarked)  0
91. O=S(=O)(c1ccccc1)C1C2CC3C(C2Cl)C31 (centres unmarked)  0
92. CC1CC(NC(=O)c2cccs2)CC(C)(C)C1 (centres unmarked)  0
93. CC1CCCC(NC(=O)C2CCCCC2C(=O)O)C1C (centres unmarked)  0
94. CC(=O)NC12CC3(C)CC(C)(CC(C)(C3)C1)C2  0
95. CC1CCCC(NC(=O)c2nc[nH]n2)C1C (centres unmarked)  0
